# According to ChEMBL document CHEMBL1201862, “PubChem BioAssay data set” (2004):
#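 The compound was tested at five concentrations on cells cultured in 96-well plates, with a 48-hour exposure period. GI50: concentration for 50% inhibition of growth.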 The source made the active and inactive calls. Cut-off read from the data, not from the text of the source: active = GI50 up to about 1.1 µM and inactive = higher.
# Tests used:
# Assay in all cases: NCI anticancer screen, dose series, 48 h
# [1] = test system: MOLT-4
# [2] = test system: SNB-75
# [3] = test system: SK-MEL-28
# [4] = test system: DU-145
# [5] = test system: BT-549
# [6] = test system: CAKI-1
# [7] = test system: CCRF-CEM
# [8] = test system: HCT-116
# [9] = test system: UO-31
# [10] = test system: IGROV-1
# [11] = test system: SK-MEL-5
# [12] = test system: HCT-15
# [13] = test system: SF-268
# [14] = test system: RXF 393
# [15] = test system: TK-10
# [16] = test system: Malme-3M
# [17] = test system: ACHN
# [18] = test system: NCI-H23
# [19] = test system: OVCAR-5
# [20] = test system: OVCAR-3
# [21] = test system: SK-MEL-2
# [22] = test system: RPMI-8226
# [23] = test system: UACC-62
# [24] = test system: MCF7
# [25] = test system: HCC 2998
# [26] = test system: KM12
# [27] = test system: 786-0
# [28] = test system: SN12C
# [29] = test system: EKVX
# [30] = test system: M14
# [31] = test system: NCI-H226
# [32] = test system: K562
# [33] = test system: OVCAR-4
# [34] = test system: A549
# [35] = test system: UACC-257
# [36] = test system: OVCAR-8
# [37] = test system: SF-295
# [38] = test system: T47D
# [39] = test system: U-251
# [40] = test system: SF-539
# [41] = test system: MDA-MB-231
# [42] = test system: Hs-578T
# [43] = test system: SK-OV-3
# [44] = test system: HOP-62
# [45] = test system: MDA-N
# [46] = test system: HL-60
# [47] = test system: NCI/ADR-RES
# [48] = test system: SNB-19
# [49] = test system: SR
# [50] = test system: SW-620
# [51] = test system: NCI-H460
# [52] = test system: HOP-92
# [53] = test system: HT-29
# [54] = test system: NCI-H522
# [55] = test system: PC-3
# [56] = test system: A498
# [57] = test system: COLO 205
# [58] = test system: LOX IMVI
# [59] = test system: MDA-MB-435
smiles,measurement,setting,value
CC(C)(C)C#CI1OC(=O)c2ccccc21,GI50,[1],1.02 µM (active)
same,GI50,[2],7.28 µM (inactive)
same,GI50,[3],4.34 µM (inactive)
same,GI50,[4],6.08 µM (inactive)
same,GI50,[5],3.16 µM (inactive)
same,GI50,[6],3.11 µM (inactive)
same,GI50,[7],1.37 µM (inactive)
same,GI50,[8],2.48 µM (inactive)
same,GI50,[9],4.41 µM (inactive)
same,GI50,[10],3.47 µM (inactive)
same,GI50,[11],6.08 µM (inactive)
same,GI50,[12],3.38 µM
same,GI50,[13],4.34 µM (inactive)
same,GI50,[14],3.62 µM (inactive)
same,GI50,[15],3.86 µM (inactive)
same,GI50,[16],3.03 µM (inactive)
same,GI50,[17],2.9 µM (inactive)
same,GI50,[18],3.48 µM (inactive)
same,GI50,[19],7.67 µM (inactive)
same,GI50,[20],2.99 µM (inactive)
same,GI50,[21],10.7 µM (inactive)
same,GI50,[22],1.81 µM (inactive)
same,GI50,[23],4.08 µM (inactive)
same,GI50,[24],4.03 µM (inactive)
same,GI50,[25],9.53 µM (inactive)
same,GI50,[26],6.85 µM (inactive)
same,GI50,[27],3.37 µM (inactive)
same,GI50,[28],5.2 µM (inactive)
same,GI50,[29],4.89 µM (inactive)
same,GI50,[30],3.31 µM (inactive)
same,GI50,[31],4.63 µM (inactive)
same,GI50,[32],1.91 µM (inactive)
same,GI50,[33],2.72 µM (inactive)
same,GI50,[34],8.49 µM (inactive)
same,GI50,[35],6.05 µM (inactive)
same,GI50,[36],4.36 µM (inactive)
same,GI50,[37],14.3 µM (inactive)
same,GI50,[38],3.68 µM (inactive)
same,GI50,[39],4.84 µM (inactive)
same,GI50,[40],2.82 µM (inactive)
same,GI50,[41],5.94 µM (inactive)
same,GI50,[42],8.75 µM (inactive)
same,GI50,[43],11.4 µM (inactive)
same,GI50,[44],10 µM (inactive)
same,GI50,[45],4.17 µM (inactive)
same,GI50,[46],513 nM (active)
same,GI50,[47],5.52 µM (inactive)
same,GI50,[48],9.27 µM (inactive)
same,GI50,[49],740 nM (active)
same,GI50,[50],3.44 µM (inactive)
same,GI50,[51],4.62 µM (inactive)
same,GI50,[52],1.72 µM (inactive)
same,GI50,[53],4.16 µM (inactive)
same,GI50,[54],1.76 µM (inactive)
same,GI50,[55],6.31 µM (inactive)
same,GI50,[56],6.07 µM (inactive)
same,GI50,[57],2.28 µM (inactive)
same,GI50,[58],1.09 µM (active)
same,GI50,[59],3.72 µM (inactive)
